Reference: patent US20120157379A1, “Gastric Inhibitory Peptide Variants and Their Uses” (priority 2009, published 2012)
Residue numbers refer to the chain shown, from its start.

T1: GIP receptor (GIPR) (Homo sapiens, UniProt P48546)
T1 construct: host or cells: HEK293T
T1 sequence (P48546 22-466): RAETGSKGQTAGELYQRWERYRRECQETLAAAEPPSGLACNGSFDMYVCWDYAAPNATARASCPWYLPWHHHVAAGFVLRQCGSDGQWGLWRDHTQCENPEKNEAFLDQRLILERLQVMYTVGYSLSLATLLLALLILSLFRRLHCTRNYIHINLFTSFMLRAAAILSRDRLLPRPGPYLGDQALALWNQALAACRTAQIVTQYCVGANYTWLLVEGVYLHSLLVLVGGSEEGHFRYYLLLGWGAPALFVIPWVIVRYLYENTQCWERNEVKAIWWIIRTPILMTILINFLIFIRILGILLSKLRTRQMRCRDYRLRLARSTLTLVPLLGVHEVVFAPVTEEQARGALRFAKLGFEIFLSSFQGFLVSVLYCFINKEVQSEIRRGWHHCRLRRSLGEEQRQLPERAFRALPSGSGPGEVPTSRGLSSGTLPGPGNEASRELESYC

T2: recombinant wild type GIP receptor (GIPR) expressed in HEK293T cells (Homo sapiens (Human), UniProt P48546)
T2 sequence: T1 sequence (P48546 22-466)

B1: GIP55G, extended 55-amino-acid GIP isoform encoded by the derived G-44394131 allele (G103) (ligand)
peptide: YAEGTFISDYSIAMDKIHQQDFVNWLLAQKGKKNDWKHNITQREARALELAGQAN
B2: GIP55S, extended 55-amino-acid GIP isoform encoded by the ancestral A-44394131 allele (S103) (ligand)
peptide: B1 peptide with G52S

How the values were obtained:
[1] = Resistance to serum degradation: peptides incubated with human serum at 37 C, then tested for receptor activation; conditions: pooled normal human serum or pooled complement-preserved human serum, in vitro
Experimental: (§1) Vector, transfection, and receptor-activation assay. […] The treated peptides were frozen at −80 C before testing with transfected cells. Receptor-activation activities were assayed based on cAMP production in transfected cells, and were performed as described44. The receptor-activation results were analyzed using the GraphPad Prism 5 package.

GIP receptor (GIPR) = target: T1, GIP receptor (GIPR); experiment: Receptor-activation assay: cAMP production in HEK293T cells expressing recombinant GIP receptor; type: cell-based; conditions: for EC50: EC50 values (-Log EC50, mean ± SEM)
Experimental: as §1

[2] = test system: fasting Sprague-Dawley rats; experiment: In vivo glucose suppression assay; design: species or system rat; conditions: for blood glucose after exogenous glucose: 100 nmoles/kg peptide with glucose 3.8 g/kg intraperitoneal, 1 hr after injection
Experimental: The in vivo glucose suppression assay. Eight-week-old Sprague-Dawley rats were fasted overnight for 20 hours. […] Bloods were obtained via the tail vein at select time points after intraperitoneal injection of glucose with a peptide. Glucose levels in the blood were measured by an OneTouch Ultra Blood Glucose Monitoring System and OneTouch Ultra Test Strips (Johnson and Johnson).

[3] = target: T2, recombinant wild type GIP receptor …; experiment: cell-based or functional assay
[4] = target: T2, recombinant wild type GIP receptor …; experiment: cell-based or functional assay; remark: listed apart in the source

Molecule	resistance to degradation by human serum, relative to GIP [1]	blood glucose after exogenous glucose [2]	EC50 of cAMP production in GIPR-expressing HEK293T cells [3]	-Log EC50 of cAMP production; peptide incubated 0 hr with pooled complement preserved human serum [4]	-Log EC50 of cAMP production; peptide incubated 0 hr with pooled human serum [4]	-Log EC50 of cAMP production; peptide incubated 3 hr with pooled complement preserved human serum [4]	-Log EC50 of cAMP production; peptide incubated 3 hr with pooled human serum [4]	-Log EC50 of cAMP production; peptide incubated 6 hr with pooled complement preserved human serum [4]	-Log EC50 of cAMP production; peptide incubated 6 hr with pooled human serum [4]	-Log EC50 of cAMP production; peptide incubated 12 hr with pooled complement preserved human serum [4]	-Log EC50 of cAMP production; peptide incubated 12 hr with pooled human serum [4]	further results
CC[C@H](C)[C@H](NC(=O)[C@H](CO)NC(=O)[C@H](Cc1ccc(O)cc1)NC(=O)[C@H](CC(=O)O)NC(=O)[C@H](CO)NC(=O)[C@@H](NC(=O)[C@H](Cc1ccccc1)NC(=O)[C@@H](NC(=O)CNC(=O)[C@H](CCC(=O)O)NC(=O)[C@H](C)NC(=O)[C@@H](N)Cc1ccc(O)cc1)[C@@H](C)O)[C@@H](C)CC)C(=O)N[C@@H](C)C(=O)N[C@@H](CCSC)C(=O)N[C@@H](CC(=O)O)C(=O)N[C@@H](CCCCN)C(=O)N[C@H](C(=O)N[C@@H](Cc1c[nH]cn1)C(=O)N[C@@H](CCC(N)=O)C(=O)N[C@@H](CCC(N)=O)C(=O)N[C@@H](CC(=O)O)C(=O)N[C@@H](Cc1ccccc1)C(=O)N[C@H](C(=O)N[C@@H](CC(N)=O)C(=O)N[C@@H](Cc1c[nH]c2ccccc12)C(=O)N[C@@H](CC(C)C)C(=O)N[C@@H](CC(C)C)C(=O)N[C@@H](C)C(=O)N[C@@H](CCC(N)=O)C(=O)N[C@@H](CCCCN)C(=O)NCC(=O)N[C@@H](CCCCN)C(=O)N[C@@H](CCCCN)C(=O)N[C@@H](CC(N)=O)C(=O)N[C@@H](CC(=O)O)C(=O)N[C@@H](Cc1c[nH]c2ccccc12)C(=O)N[C@@H](CCCCN)C(=O)N[C@@H](Cc1c[nH]cn1)C(=O)N[C@@H](CC(N)=O)C(=O)N[C@H](C(=O)N[C@H](C(=O)N[C@@H](CCC(N)=O)C(=O)N[C@@H](CCCNC(=N)N)C(=O)N[C@@H](CCC(=O)O)C(=O)N[C@@H](C)C(=O)N[C@@H](CCCNC(=N)N)C(=O)N[C@@H](C)C(=O)N[C@@H](CC(C)C)C(=O)N[C@@H](CCC(=O)O)C(=O)N[C@@H](CC(C)C)C(=O)N[C@@H](C)C(=O)NCC(=O)N[C@@H](CCC(N)=O)C(=O)N[C@@H](C)C(=O)N[C@@H](CC(N)=O)C(=O)O)[C@@H](C)O)[C@@H](C)CC)C(C)C)[C@@H](C)CC [GIP55G]	significantly more resistant to degradation	–	–	–	–	–	–	–	–	–	–	–
CC[C@H](C)[C@H](NC(=O)[C@H](CO)NC(=O)[C@H](Cc1ccc(O)cc1)NC(=O)[C@H](CC(=O)O)NC(=O)[C@H](CO)NC(=O)[C@@H](NC(=O)[C@H](Cc1ccccc1)NC(=O)[C@@H](NC(=O)CNC(=O)[C@H](CCC(=O)O)NC(=O)[C@H](C)NC(=O)[C@@H](N)Cc1ccc(O)cc1)[C@@H](C)O)[C@@H](C)CC)C(=O)N[C@@H](C)C(=O)N[C@@H](CCSC)C(=O)N[C@@H](CC(=O)O)C(=O)N[C@@H](CCCCN)C(=O)N[C@H](C(=O)N[C@@H](Cc1c[nH]cn1)C(=O)N[C@@H](CCC(N)=O)C(=O)N[C@@H](CCC(N)=O)C(=O)N[C@@H](CC(=O)O)C(=O)N[C@@H](Cc1ccccc1)C(=O)N[C@H](C(=O)N[C@@H](CC(N)=O)C(=O)N[C@@H](Cc1c[nH]c2ccccc12)C(=O)N[C@@H](CC(C)C)C(=O)N[C@@H](CC(C)C)C(=O)N[C@@H](C)C(=O)N[C@@H](CCC(N)=O)C(=O)N[C@@H](CCCCN)C(=O)NCC(=O)N[C@@H](CCCCN)C(=O)N[C@@H](CCCCN)C(=O)N[C@@H](CC(N)=O)C(=O)N[C@@H](CC(=O)O)C(=O)N[C@@H](Cc1c[nH]c2ccccc12)C(=O)N[C@@H](CCCCN)C(=O)N[C@@H](Cc1c[nH]cn1)C(=O)N[C@@H](CC(N)=O)C(=O)N[C@H](C(=O)N[C@H](C(=O)N[C@@H](CCC(N)=O)C(=O)N[C@@H](CCCNC(=N)N)C(=O)N[C@@H](CCC(=O)O)C(=O)N[C@@H](C)C(=O)N[C@@H](CCCNC(=N)N)C(=O)N[C@@H](C)C(=O)N[C@@H](CC(C)C)C(=O)N[C@@H](CCC(=O)O)C(=O)N[C@@H](CC(C)C)C(=O)N[C@@H](C)C(=O)N[C@@H](CO)C(=O)N[C@@H](CCC(N)=O)C(=O)N[C@@H](C)C(=O)N[C@@H](CC(N)=O)C(=O)O)[C@@H](C)O)[C@@H](C)CC)C(C)C)[C@@H](C)CC [GIP55S]	significantly more resistant to degradation	reduced glucose contents in the blood to basal levels	–	–	–	–	–	–	–	–	–	ranking of potency (GIP receptor (GIPR); 0 hr of human serum treatment (normal or complement preserved)): GIP>GIP55G>GIP55S; ranking of potency (GIP receptor (GIPR); 6 hr after treatment with human serum (normal or complement preserved)): GIP=GIP55G=GIP55S; ranking of potency (GIP receptor (GIPR); 12 hr after treatment with human serum (normal or complement preserved)): GIP55G>GIP55S≧GIP; lower potency relative to conventional GIP (GIP receptor (GIPR); EC50 compared with GIP, no serum treatment): ~3 fold; EC50 (GIP receptor (GIPR); with pooled complement preserved human serum, 0 hours of incubation): 3.72 nM; EC50 (GIP receptor (GIPR); with pooled complement preserved human serum, 3 hours of incubation): 3.24 nM; EC50 (GIP receptor (GIPR); with pooled complement preserved human serum, 6 hours of incubation): 16.2 nM; EC50 (GIP receptor (GIPR); with pooled complement preserved human serum, 12 hours of incubation): 75.9 nM; EC50 (GIP receptor (GIPR); with pooled human serum, 0 hours of incubation): 2.75 nM; EC50 (GIP receptor (GIPR); with pooled human serum, 3 hours of incubation): 4.57 nM; EC50 (GIP receptor (GIPR); with pooled human serum, 6 hours of incubation): 18.2 nM; EC50 (GIP receptor (GIPR); with pooled human serum, 12 hours of incubation): 41.7 nM; cAMP production in GIP receptor-expressing HEK293T cells (GIP receptor (GIPR); cells treated with synthetic peptides for 12 hr, total cAMP in cell lysates): dose-dependent increases of cAMP production; suppression of hyperglycemia ([2]; compared with conventional mature GIP): suppress hyperglycemias to similar extents
CC[C@H](C)[C@H](NC(=O)[C@H](CO)NC(=O)[C@H](Cc1ccc(O)cc1)NC(=O)[C@H](CC(=O)O)NC(=O)[C@H](CO)NC(=O)[C@@H](NC(=O)[C@H](Cc1ccccc1)NC(=O)[C@@H](NC(=O)CNC(=O)[C@H](CCC(=O)O)NC(=O)[C@H](C)NC(=O)[C@@H](N)Cc1ccc(O)cc1)[C@@H](C)O)[C@@H](C)CC)C(=O)N[C@@H](C)C(=O)N[C@@H](CCSC)C(=O)N[C@@H](CC(=O)O)C(=O)N[C@@H](CCCCN)C(=O)N[C@H](C(=O)N[C@@H](Cc1c[nH]cn1)C(=O)N[C@@H](CCC(N)=O)C(=O)N[C@@H](CCC(N)=O)C(=O)N[C@@H](CC(=O)O)C(=O)N[C@@H](Cc1ccccc1)C(=O)N[C@H](C(=O)N[C@@H](CC(N)=O)C(=O)N[C@@H](Cc1c[nH]c2ccccc12)C(=O)N[C@@H](CC(C)C)C(=O)N[C@@H](CC(C)C)C(=O)N[C@@H](C)C(=O)N[C@@H](CCC(N)=O)C(=O)N[C@@H](CCCCN)C(=O)NCC(=O)N[C@@H](CCCCN)C(=O)N[C@@H](CCCCN)C(=O)N[C@@H](CC(N)=O)C(=O)N[C@@H](CC(=O)O)C(=O)N[C@@H](Cc1c[nH]c2ccccc12)C(=O)N[C@@H](CCCCN)C(=O)N[C@@H](Cc1c[nH]cn1)C(=O)N[C@@H](CC(N)=O)C(=O)N[C@H](C(=O)N[C@H](C(=O)N[C@@H](CCC(N)=O)C(=O)O)[C@@H](C)O)[C@@H](C)CC)C(C)C)[C@@H](C)CC [GIP, Gastric inhibitory polypeptide, reference compound]	–	reduced glucose contents in the blood to basal levels	–	–	–	–	–	–	–	–	–	–
B1	–	–	3.2 nM	8.51 -Log EC50	8.47 -Log EC50	8.22 -Log EC50	8.32 -Log EC50	7.88 -Log EC50	8.02 -Log EC50	7.86 -Log EC50	7.93 -Log EC50	–
B2	–	–	2.6 nM	8.43 -Log EC50	8.56 -Log EC50	8.49 -Log EC50	8.34 -Log EC50	7.79 -Log EC50	7.74 -Log EC50	7.12 -Log EC50	7.38 -Log EC50	–
